From patent US20090054392A1, “NAPHTHYLPYRIMIDINE, NAPHTHYLPYRAZINE AND NAPHTHYLPYRIDAZINE ANALOGS AND THEIR USE AS AGONISTS OF THE WNT-BETA-CATENIN CELLULAR MESSAGING SYSTEM” (Wyeth, priority 2007, published 2009) come the findings set out here.

In the series the test system is Dkk1-LRP5-TCF-Luciferase. The experiment in a line: Functional Dkk1-LRP5-TCF-Luciferase Assay in U2OS Cells. Conditions: for EC50 / fold induction at 2 µM / fold induction at 20 µM: Homo sapiens, U2OS; for fold induction at 2 µM: read-out: B = TCF ACTIVITY/DMSO CONTROL Fold induction @ 2.0 uM, 2.0 uM compound; for fold induction at 20 µM: read-out: C = TCF ACTIVITY/DMSO CONTROL Fold induction @ 20.0 uM, 20.0 uM compound; for A = MAX FOLD Induction/DMSO CONTROL: maximum fold induction over DMSO control.

Experimental: Biological Evaluation—Functional Dkk1-LRP5-TCF-Luciferase Assay in U2OS Cells
Frozen U2OS-Dkk1-HTS Reporter cells generation: U2OS Human Bone derived cells (Osteosarcoma) are grown in McCoy's 5A Medium (Modified), with L -glutamine (GIBCO Cat No. 16600-082)+1% Pen-Strep+5% FBS) plated at 1×10^7 cells/T175 cm flask. The next day, the cells are co-transfected overnight with the following plasmids: (a) Test reporter (16×TCF-TK-FireFly-Luci), (b) Internal Control Reporter (TK-Renilla-Luci), (c) Wnt3a and (d) Dkk1. GIBCO's Lipofectamine 2000 and OptiMEM are used for the transfection. After a minimum of 4 hr of transfection at 37° C., the plasmid-transfected cells are trypsinized, counted, and suspended in freezing medium (95% FBS+5% DMSO). The reporter cells are frozen at 1×10^7/ml concentrations, aliquoted into 0.5 ml or 2.5 ml/tube and stored at 70° C.
The following day, test compounds are added under HTS setup by Plate Track into 384 well plates (white, TC treated, Falcon plate) such that the final concentration of the compounds in 20 μL/well cell will be 5 μg/ml (final concentration of DMSO=0.25% and final compound concentration=20 μM). Vials of frozen reporter cells are thawed by warming the vial in a 37° C. water bath for 60-120 seconds with some shaking until the cells formed a suspension. The thawed cells are transferred into a cold 50 ml (or larger) tube and mixed well by gentle pipetting. The appropriate amount of cold Phenol Red Free RPMI medium-1640 (GIBCO, Cat #11835-030) with L-glutamine is added, both with ˜5% FBS (GIBCO-BRL, Cat. #16000-044), so that 20 μl of the final cell suspension will contain ˜5,000 cells. The cell dilution is done such that the final concentration of FBS is ˜5%.
Diluted cells (20 μl) are added into each well in a 384 well plate. The plate is incubated at 37° C. under 5% CO2 for ˜20 h. Bright-Glo substrate, 2.5 μl/well is added, and the Fire Fly Luciferase is measured using VLUX (60 second exposure) immediately after the substrate is added. Test compounds are dissolved in DMSO (100%) and added to specified wells. Raw luciferase signal data obtained as relative luminescence units (RLUs) for the test compounds are normalized to the signal of the mean of the sample reporter cell plate with DMSO.

Broadly, the EC50 is the concentration that produces a half-maximal response. Consider `O=C1CCCN1[C@H]1CCN(c2nccc(-c3ccc4ccccc4c3)n2)C1` [(3′S)-1′-[4-(2-naphthyl)pyrimidin-2-yl]-1,3′-bipyrrolidin-2-one], for which the EC50 came to 0.189 µM, the fold induction at 2 µM worked out at 3.04, the fold induction at 20 µM is 3.62 and the “A = MAX FOLD Induction/DMSO CONTROL” value was found to be 2.290 fold.
With `c1ccc2cc(-c3ccnc(N4CC[C@H](N5CCCC5)C4)n3)ccc2c1` [(3′S)-1′-[4-(2-naphthyl)pyrimidin-2-yl]-1,3′-bipyrrolidine], the fold induction at 2 µM came to 1.45 and the fold induction at 20 µM worked out at 0.83.
The corresponding values for `O=C1N[C@H](C2CCN(c3nccc(-c4ccc5ccccc5c4)n3)CC2)CO1` [(4R)-4-{1-[4-(2-naphthyl)pyrimidin-2-yl]piperidin-4-yl}-1,3-oxazolidin-2-one] are 1.4 and 0.01.
In the case of `CC1(C)OC(=O)N[C@@H]1C1CCN(c2nccc(-c3ccc4ccccc4c3)n2)CC1` [(4R)-5,5-dimethyl-4-{1-[4-(2-naphthyl)pyrimidin-2-yl]piperidin-4-yl}-1,3-oxazolidin-2-one], the fold induction at 2 µM is 1.98, the fold induction at 20 µM is 1.39 and the “A = MAX FOLD Induction/DMSO CONTROL” value turned out to be 1.585 fold.
With `NCC1CCCN(c2nccc(-c3ccc4ccccc4c3)n2)C1` (stereo not shown) [({1-[4-(2-naphthyl)pyrimidin-2-yl]piperidin-3-yl}methyl)amine], it took 2.68 µM to reach a half-maximal effect (EC50), the fold induction at 2 µM worked out at 2.9, the fold induction at 20 µM is 0.005 and the “A = MAX FOLD Induction/DMSO CONTROL” value worked out at 5.433 fold.
For `NCC1CCN(c2nccc(-c3ccc4ccccc4c3)n2)CC1` [({1-[4-(2-naphthyl)pyrimidin-2-yl]piperidin-4-yl}methyl)amine], in that order: 1.98 µM, 2.23, 0.143 and 3.390 fold.
For `CC(C)C(=O)N(C)CCN(C)[C@@H]1CCN(c2nccc(-c3ccc4ccccc4c3)n2)C1` [N,2-dimethyl-N-[2-(methyl{(3R)-1-[4-(2-naphthyl)pyrimidin-2-yl]pyrrolidin-3-yl}amino)ethyl]propanamide], the fold induction at 20 µM worked out at 1.5.
For `CN(CCN(C)S(=O)(=O)N(C)C)[C@@H]1CCN(c2nccc(-c3ccc4ccccc4c3)n2)C1` [N,N,N′-trimethyl-N′-[2-(methyl{(3R)-1-[4-(2-naphthyl)pyrimidin-2-yl]pyrrolidin-3-yl}amino)ethyl]sulfamide], the fold induction at 2 µM turned out to be 1.3.
The same measure, in the same setting: then `CN(C)CCN(C)[C@@H]1CCN(c2nccc(-c3ccc4ccccc4c3)n2)C1` [N,N,N′-trimethyl-N′-{(3R)-1-[4-(2-naphthyl)pyrimidin-2-yl]pyrrolidin-3-yl}ethane-1,2-diamine], with 2.4; and `CN(C)CCCN(C)[C@@H]1CCN(c2nccc(-c3ccc4ccccc4c3)n2)C1` [N,N,N′-trimethyl-N′-{(3R)-1-[4-(2-naphthyl)pyrimidin-2-yl]pyrrolidin-3-yl}propane-1,3-diamine], with 1.3.
Take `CN(C)CCN(C)[C@H]1CCN(c2nccc(-c3ccc4ccccc4c3)n2)C1` [N,N,N′-trimethyl-N′-{(3S)-1-[4-(2-naphthyl)pyrimidin-2-yl]pyrrolidin-3-yl}ethane-1,2-diamine]: the fold induction at 2 µM stood at 1.2.
With `CN(C)CCCN(C)[C@H]1CCN(c2nccc(-c3ccc4ccccc4c3)n2)C1` [N,N,N′-trimethyl-N′-{(3S)-1-[4-(2-naphthyl)pyrimidin-2-yl]pyrrolidin-3-yl}propane-1,3-diamine], the fold induction at 2 µM is 2.
`CCN(CC)C1CCN(c2nccc(-c3ccc4ccccc4c3)n2)C1` (stereo not shown) [N,N-diethyl-1-[4-(2-naphthyl)pyrimidin-2-yl]pyrrolidin-3-amine]: the midpoint of the response, the EC50, lay at 28.2 µM; the fold induction at 2 µM stood at 1.06; the fold induction at 20 µM was determined as 2.67; the “A = MAX FOLD Induction/DMSO CONTROL” value is on record as 3.680 fold.
With `CCN(CC)c1nccc(-c2ccc3ccccc3c2)n1` [N,N-diethyl-4-(2-naphthyl)pyrimidin-2-amine], the fold induction at 2 µM stood at 1.75, the fold induction at 20 µM was found to be 1.68 and the “A = MAX FOLD Induction/DMSO CONTROL” value was 1.260 fold.
For `CCN(CC)C(=O)N1CCC(CNc2nccc(-c3ccc4ccccc4c3)n2)CC1` [N,N-diethyl-4-({[4-(2-naphthyl)pyrimidin-2-yl]amino}methyl)piperidine-1-carboxamide], the fold induction at 2 µM came to 1.22 and the fold induction at 20 µM was 1.04.
Turning to `CCN(CC)C(=O)N1CCCN(c2nccc(-c3ccc4ccccc4c3)n2)CC1` [N,N-diethyl-4-[4-(2-naphthyl)pyrimidin-2-yl]-1,4-diazepane-1-carboxamide], a half-maximal response (EC50) required 30 µM, the fold induction at 20 µM stood at 1.49 and the “A = MAX FOLD Induction/DMSO CONTROL” value was 3.070 fold.
As to `CCN(CC)C(=O)N1CCC(Nc2nccc(-c3ccc4ccccc4c3)n2)CC1` [N,N-diethyl-4-{[4-(2-naphthyl)pyrimidin-2-yl]amino}piperidine-1-carboxamide], the fold induction at 2 µM was 1.65.
With `CCN(CC)C(=O)N1CCC(N(C)c2nccc(-c3ccc4ccccc4c3)n2)CC1` [N,N-diethyl-4-{methyl[4-(2-naphthyl)pyrimidin-2-yl]amino}piperidine-1-carboxamide], the fold induction at 2 µM stood at 0.86 and the fold induction at 20 µM is 1.32.
Consider `CCN(CC)C(=O)NCCC1CCN(c2nccc(-c3ccc4ccccc4c3)n2)CC1` [N,N-diethyl-N′-(2-{1-[4-(2-naphthyl)pyrimidin-2-yl]piperidin-4-yl}ethyl)urea], for which the fold induction at 2 µM came out at 1.13 and the fold induction at 20 µM was 0.33.
As to `CCN(CC)C(=O)N[C@@H]1CCN(c2nccc(-c3ccc4ccccc4c3)n2)C1` [N,N-diethyl-N′-{(3R)-1-[4-(2-naphthyl)pyrimidin-2-yl]pyrrolidin-3-yl}urea], the fold induction at 2 µM was 1.22, the fold induction at 20 µM amounted to 1.8 and the “A = MAX FOLD Induction/DMSO CONTROL” value stood at 1.270 fold.
For `CCN(CC)C(=O)N[C@H]1CCN(c2nccc(-c3ccc4ccccc4c3)n2)C1` [N,N-diethyl-N′-{(3S)-1-[4-(2-naphthyl)pyrimidin-2-yl]pyrrolidin-3-yl}urea], the fold induction at 2 µM was 1.83.
Take `CN(C)C(=O)[C@H]1CCCN1c1nccc(-c2ccc3ccccc3c2)n1` [N,N-dimethyl-1-[4-(2-naphthyl)pyrimidin-2-yl]-D-prolinamide]: the fold induction at 2 µM is 1.02 and the fold induction at 20 µM came out at 1.2.
With `CN(C)C(=O)[C@@H]1CCCN1c1nccc(-c2ccc3ccccc3c2)n1` [N,N-dimethyl-1-[4-(2-naphthyl)pyrimidin-2-yl]-L-prolinamide], the fold induction at 2 µM is 1 and the fold induction at 20 µM was 1.24.
Turning to `CN(C)C1CCN(c2nccc(-c3ccc4ccccc4c3)n2)C1` (stereo not shown) [N,N-dimethyl-1-[4-(2-naphthyl)pyrimidin-2-yl]pyrrolidin-3-amine], the half-maximal effective concentration (EC50) was 4.11 µM, the fold induction at 2 µM was determined as 2, the fold induction at 20 µM is 1.91 and the “A = MAX FOLD Induction/DMSO CONTROL” value was found to be 5.503 fold.
On to `CN(C)CC1CCN(c2nccc(-c3ccc4ccccc4c3)n2)CC1` [N,N-dimethyl-1-{1-[4-(2-naphthyl)pyrimidin-2-yl]piperidin-4-yl}methanamine], for which the fold induction at 2 µM was 1.85.
